Assay results published in patent publication US8802700B2 (Vertex Pharmaceuticals Incorporated, priority 2010, dated 2014).

target: T1, ΔF508-CFTR (Homo sapiens, UniProt P13569, DEL508-508); experiment: Membrane potential optical assay (FRET voltage-sensor dyes, VIPR), identification of potentiator compounds; format: cell-based; details: Table 3; assay not given
T1 construct: expressed in transfected cells
Procedure, shortened: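 NIH3T3 mouse fibroblasts stably expressing ΔF508-CFTR, cultured 24 h at 27 °C, were loaded with FRET voltage dyes CC2-DMPE and DiSBAC2(3). Double-addition format: first addition of Cl⁻-free (gluconate) medium with or without compound; membrane-potential change read as fluorescence on VIPR II.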

T1 sequence (P13569 with tags, fused parts or gaps DEL508-508): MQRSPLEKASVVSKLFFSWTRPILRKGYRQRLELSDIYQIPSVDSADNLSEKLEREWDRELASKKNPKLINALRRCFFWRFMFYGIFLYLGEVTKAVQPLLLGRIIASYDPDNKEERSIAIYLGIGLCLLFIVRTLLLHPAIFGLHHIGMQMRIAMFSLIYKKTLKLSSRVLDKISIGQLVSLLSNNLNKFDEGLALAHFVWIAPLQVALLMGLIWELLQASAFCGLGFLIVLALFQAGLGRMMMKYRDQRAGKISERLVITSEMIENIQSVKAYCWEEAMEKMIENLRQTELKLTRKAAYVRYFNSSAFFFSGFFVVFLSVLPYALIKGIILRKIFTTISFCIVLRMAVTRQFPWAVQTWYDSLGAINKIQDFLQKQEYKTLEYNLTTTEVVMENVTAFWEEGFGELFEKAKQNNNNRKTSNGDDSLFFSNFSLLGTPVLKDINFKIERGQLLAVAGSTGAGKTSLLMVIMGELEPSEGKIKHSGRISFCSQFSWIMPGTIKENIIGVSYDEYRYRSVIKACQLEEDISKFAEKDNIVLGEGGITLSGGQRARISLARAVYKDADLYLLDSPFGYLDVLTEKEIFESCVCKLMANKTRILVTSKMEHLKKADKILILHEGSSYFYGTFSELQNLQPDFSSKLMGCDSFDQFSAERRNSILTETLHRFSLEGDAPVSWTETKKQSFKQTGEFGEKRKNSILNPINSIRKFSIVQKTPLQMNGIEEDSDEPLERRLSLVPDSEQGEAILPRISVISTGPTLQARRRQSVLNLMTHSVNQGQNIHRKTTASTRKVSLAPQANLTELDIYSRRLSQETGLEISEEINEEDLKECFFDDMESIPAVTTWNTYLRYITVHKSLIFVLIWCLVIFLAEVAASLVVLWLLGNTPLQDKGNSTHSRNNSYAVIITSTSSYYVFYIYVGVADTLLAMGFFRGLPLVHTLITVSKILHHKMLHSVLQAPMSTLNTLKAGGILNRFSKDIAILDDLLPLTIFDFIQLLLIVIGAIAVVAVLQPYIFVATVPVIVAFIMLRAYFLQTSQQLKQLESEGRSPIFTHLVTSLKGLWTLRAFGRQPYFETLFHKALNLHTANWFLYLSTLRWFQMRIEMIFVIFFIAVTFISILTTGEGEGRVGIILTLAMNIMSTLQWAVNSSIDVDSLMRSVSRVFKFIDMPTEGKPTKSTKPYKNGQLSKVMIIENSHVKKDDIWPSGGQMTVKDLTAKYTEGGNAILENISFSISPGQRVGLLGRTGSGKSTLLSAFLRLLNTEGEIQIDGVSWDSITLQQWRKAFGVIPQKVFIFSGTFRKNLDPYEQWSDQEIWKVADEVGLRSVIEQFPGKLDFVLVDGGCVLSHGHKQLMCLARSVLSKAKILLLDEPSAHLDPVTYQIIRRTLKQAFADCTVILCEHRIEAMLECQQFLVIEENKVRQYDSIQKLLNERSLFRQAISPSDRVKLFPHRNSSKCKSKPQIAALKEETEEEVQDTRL

EC50 [µM]	Compound
< 10	CC(C)(C)c1cc(Cl)c(NC(=O)c2c[nH]c3ccccc3c2=O)cc1O [Compound 291, N-(2-chloro-5-hydroxy-4-tert-butyl-phenyl)-4-oxo-1H-quinoline-3-carboxamide]
10 to 25	O=C(Nc1ccccc1-c1ccncc1)c1c[nH]c2ccccc2c1=O [Compound 70, 4-oxo-N-[2-(4-pyridyl)phenyl]-1H-quinoline-3-carboxamide]

same assay, conditions: Table 3; assay not given; read-out: % Activity (% Efficacy, relative efficacy)

Compound	Emax [%]
CS(=O)(=O)c1ccc(-c2ccccc2NC(=O)c2c[nH]c3ccccc3c2=O)cc1 [Compound 326, N-[2-(4-methylsulfonylphenyl)phenyl]-4-oxo-1H-quinoline-3-carboxamide]	25 to 100
O=C(Nc1ccc2[nH]nnc2c1)c1c[nH]c2ccccc2c1=O [Compound 256, N-(1H-benzotriazol-5-yl)-4-oxo-1H-quinoline-3-carboxamide]	< 25
CC1(c2ccc(NC(=O)c3c[nH]c4cccc(O)c4c3=O)cc2O)CCCCC1 [Compound 606, 5-hydroxy-N-[3-hydroxy-4-(1-methylcyclohexyl)-phenyl]-4-oxo-1H-quinoline-3-carboxamide]	< 25
O=C(Nc1ccc(OCc2ccccc2)cc1)c1c[nH]c2ccccc2c1=O [Compound 189, N-(4-benzyloxyphenyl)-4-oxo-1H-quinoline-3-carboxamide]	25 to 100
C[S+]([O-])c1ccc(-c2ccccc2NC(=O)c2c[nH]c3ccccc3c2=O)cc1 (stereo not shown) [Compound 134, N-[2-(4-methylsulfinylphenyl)phenyl]-4-oxo-1H-quinoline-3-carboxamide]	25 to 100
CC(C)(C)OC(=O)N1CCC(C)(C)c2ccc(NC(=O)c3c[nH]c4ccccc4c3=O)cc21 [Compound 108, 4,4-dimethyl-7-[(4-oxo-1H-quinolin-3-yl)carbonylamino]-1,2,3,4-tetrahydroquinoline-1-carboxylic acid tert-butyl ester]	25 to 100
O=C(Nc1ccc2c(c1)C(O)CCC2)c1c[nH]c2ccccc2c1=O (stereo not shown) [Compound 200, 1,4-dihydro-N-(1,2,3,4-tetrahydro-1-hydroxynaphthalen-7-yl)-4-oxoquinoline-3-carboxamide]	25 to 100
Cc1cc(C2C3CC4CC(C3)CC2C4)c(O)cc1NC(=O)c1c[nH]c2ccccc2c1=O (stereo not shown) [Compound 208, N-[4-(2-adamantyl)-5-hydroxy-2-methyl-phenyl]-4-oxo-1H-quinoline-3-carboxamide]	25 to 100
COc1cccc(OC)c1-c1ccccc1NC(=O)c1c[nH]c2ccccc2c1=O [Compound 49, N-[2-(2,6-dimethoxyphenyl)phenyl]-4-oxo-1H-quinoline-3-carboxamide]	25 to 100
COc1cc(NC(=O)c2c[nH]c3ccccc3c2=O)cc(C(F)(F)F)c1 [Compound 691, N-[3-methoxy-5-(trifluoromethyl)phenyl]-4-oxo-1H-quinoline-3-carboxamide]	25 to 100
CC(=O)N1CC2(CC2)c2ccc(NC(=O)c3c[nH]c4ccccc4c3=O)cc21 [Compound 175, 4-Oxo-1,4-dihydro-quinoline-3-carboxylic acid N-(1′-Acetyl-1′,2′-dihydrospiro[cyclopropane-1,3′-3H-indol]-6′-yl)-amide]	25 to 100
CC1=NN(c2cccc(NC(=O)c3c[nH]c4ccccc4c3=O)c2)C(=O)C1 [Compound 212, N-[3-(3-methyl-5-oxo-1,4-dihydropyrazol-1-yl)phenyl]-4-oxo-1H-quinoline-3-carboxamide]	< 25
Cc1ccc(NC(=O)c2c[nH]c3ccccc3c2=O)c(C)c1 [Compound 281, N-(2,4-dimethylphenyl)-4-oxo-1H-quinoline-3-carboxamide]	25 to 100
CCc1ccc(NC(=O)c2c[nH]c3ccccc3c2=O)cc1NC(C)=O [Compound 149, N-(3-acetylamino-4-ethyl-phenyl)-4-oxo-1H-quinoline-3-carboxamide]	25 to 100
O=C(Nc1ccccc1-c1ccncc1)c1c[nH]c2ccccc2c1=O [Compound 70, 4-oxo-N-[2-(4-pyridyl)phenyl]-1H-quinoline-3-carboxamide]	25 to 100
O=C(Nc1ccc2cc(C(F)(F)F)[nH]c2c1)c1c[nH]c2cccc(O)c2c1=O [Compound 693, 5-hydroxy-4-oxo-N-[2-(trifluoromethyl)-1H-indol-6-yl]-1H-quinoline-3-carboxamide]	25 to 100
CC(C)c1ccc(N)cc1NC(=O)c1c[nH]c2ccccc2c1=O [Compound 101, N-(5-amino-2-isopropyl-phenyl)-4-oxo-1H-quinoline-3-carboxamide]	25 to 100
O=C(Nc1ccccc1-c1ccco1)c1c[nH]c2ccccc2c1=O [Compound 115, N-[2-(2-furyl)phenyl]-4-oxo-1H-quinoline-3-carboxamide]	25 to 100
CCOc1ccccc1-c1cc2cc[nH]c2cc1NC(=O)c1c[nH]c2ccccc2c1=O [Compound 327, N-[5-(2-ethoxyphenyl)-1H-indol-6-yl]-4-oxo-1H-quinoline-3-carboxamide]	25 to 100
Cc1cccc2[nH]cc(C(=O)Nc3ccc(N4CC(F)(F)C[C@H]4C)cc3C(F)(F)F)c(=O)c12 [Compound 667, (R)-N-(4-(4,4-difluoro-2-methylpyrrolidin-1-yl)-2-(trifluoromethyl)phenyl)-5-methyl-4-oxo-1,4-dihydroquinoline-3-carboxamide]	25 to 100
COc1cccc(-c2ccccc2NC(=O)c2c[nH]c3ccccc3c2=O)c1 [Compound 283, N-[2-(3-methoxyphenyl)phenyl]-4-oxo-1H-quinoline-3-carboxamide]	> 100
CCCc1ccc(NC(=O)c2c[nH]c3ccccc3c2=O)cc1NC(=O)OCC [Compound 382, [5-[(4-oxo-1H-quinolin-3-yl)carbonylamino]-2-propyl-phenyl]aminoformic acid ethyl ester]	25 to 100
NCc1ccccc1-c1ccc(NC(=O)c2c[nH]c3ccccc3c2=O)cc1 [Compound 86, N-[4-[2-(aminomethyl)phenyl]phenyl]-4-oxo-1H-quinoline-3-carboxamide]	25 to 100
O=C(Nc1ccccc1-c1cccc(C(F)(F)F)c1)c1c[nH]c2ccccc2c1=O [Compound 278, 4-oxo-N-[2-[3-(trifluoromethyl)phenyl]phenyl]-1H-quinoline-3-carboxamide]	25 to 100
CC(C)(CO)c1ccc(NC(=O)c2c[nH]c3ccccc3c2=O)cc1 [Compound 5, N-[4-(2-hydroxy-1,1-dimethyl-ethyl)phenyl]-4-oxo-1H-quinoline-3-carboxamide]	25 to 100
Cc1cccc(NC(=O)c2c[nH]c3ccccc3c2=O)c1C [Compound 61, N-(2,3-dimethylphenyl)-4-oxo-1H-quinoline-3-carboxamide]	25 to 100
O=C(Nc1cccc2c1Cc1ccccc1-2)c1c[nH]c2ccccc2c1=O [Compound 18, N-(9H-fluoren-1-yl)-4-oxo-1H-quinoline-3-carboxamide]	25 to 100

More lines, now with the values ahead:

Emax [%]	Compound
25 to 100	CC(C)(C)c1cc(C(C)(C)C)c(NC(=O)c2c[nH]c3ccc(O)cc3c2=O)cc1O [Compound 702, 6-hydroxy-N-(5-hydroxy-2,4-ditert-butyl-phenyl)-4-oxo-1H-quinoline-3-carboxamide]
25 to 100	COc1cc(NC(=O)c2c[nH]c3cccc(O)c3c2=O)cc(C(F)(F)F)c1 [Compound 502, 5-hydroxy-N-[3-methoxy-5-(trifluoromethyl)phenyl]-4-oxo-1H-quinoline-3-carboxamide]
25 to 100	CC(C)(C)c1cc(C(C)(C)C)c(NC(=O)c2c[nH]c3c(F)cccc3c2=O)cc1O [Compound 687, 8-fluoro-N-(5-hydroxy-2,4-ditert-butyl-phenyl)-4-oxo-1H-quinoline-3-carboxamide]
25 to 100	CC(C)(C)c1ccc(NC(=O)c2c[nH]c3ccccc3c2=O)cc1F [Compound 645, N-(3-fluoro-4-tert-butyl-phenyl)-4-oxo-1H-quinoline-3-carboxamide]
25 to 100	C[C@@H]1CCCN1c1ccc(NC(=O)c2c[nH]c3ccc(F)cc3c2=O)c(C(F)(F)F)c1 [Compound 684, (R)-6-fluoro-N-(4-(2-methylpyrrolidin-1-yl)-2-(trifluoromethyl)phenyl)-4-oxo-1,4-dihydroquinoline-3-carboxamide]
25 to 100	O=C(Nc1cc2[nH]ccc2cc1C(F)(F)F)c1c[nH]c2cccc(O)c2c1=O [Compound 494, 5-hydroxy-4-oxo-N-[5-(trifluoromethyl)-1H-indol-6-yl]-1H-quinoline-3-carboxamide]
25 to 100	CC(C)(C)c1cc(Cl)c(NC(=O)c2c[nH]c3ccccc3c2=O)cc1O [Compound 291, N-(2-chloro-5-hydroxy-4-tert-butyl-phenyl)-4-oxo-1H-quinoline-3-carboxamide]
25 to 100	COCCn1ccc2cc(C(F)(F)F)c(NC(=O)c3c[nH]c4ccc(F)cc4c3=O)cc21 [Compound 566, 6-fluoro-N-[1-(2-methoxyethyl)-5-(trifluoromethyl)indol-6-yl]-4-oxo-1H-quinoline-3-carboxamide]
25 to 100	CC1CCN(S(=O)(=O)c2ccc3[nH]cc(C(=O)Nc4cc5[nH]ccc5cc4C(C)(C)C)c(=O)c3c2)CC1 [Compound 51, 6-[(4-methyl-1-piperidyl)sulfonyl]-4-oxo-N-(5-tert-butyl-1H-indol-6-yl)-1H-quinoline-3-carboxamide]
25 to 100	CC(C)(C)c1cc(F)c(NC(=O)c2c[nH]c3ccc(F)cc3c2=O)cc1O [Compound 319, 6-fluoro-N-(2-fluoro-5-hydroxy-4-tert-butyl-phenyl)-4-oxo-1H-quinoline-3-carboxamide]
25 to 100	CC1(c2ccc(NC(=O)c3c[nH]c4ccc(F)cc4c3=O)cc2)COC1 [Compound 521, 6-fluoro-N-[4-(3-methyloxetan-3-yl)phenyl]-4-oxo-1H-quinoline-3-carboxamide]
25 to 100	CC1(c2cc(F)c(NC(=O)c3c[nH]c4ccc(F)cc4c3=O)cc2O)CCCCC1 [Compound 218, 6-fluoro-N-[2-fluoro-5-hydroxy-4-(1-methylcyclohexyl)-phenyl]-4-oxo-1H-quinoline-3-carboxamide]
25 to 100	CC(C)(C)c1ccccc1NC(=O)c1c[nH]c2ccccc2c1=O [Compound 90, 4-oxo-N-(2-tert-butylphenyl)-1H-quinoline-3-carboxamide]
25 to 100	CC(C)(C)c1cc(C(C)(C)C)c(NC(=O)c2c[nH]c3c(Cl)cccc3c2=O)cc1O [Compound 663, 8-chloro-N-(5-hydroxy-2,4-ditert-butyl-phenyl)-4-oxo-1H-quinoline-3-carboxamide]
